Data reported in PubChem BioAssay AID2060886 (Molecular Pharmacology Branch, DTP, NCI, 2025).
pIC50: −log10 of the molar value. Each block holds one compound with its values, some of them ahead of it.

System: 653999-131-R-J2-PDC complex spheroids, growth inhibition
Assay: Anticancer human tumor 653999-131-R-J2-PDC patient-derived lung adenocarcinoma cell line growth inhibition [RAS]
Details: for viability, T/C: stronger effect = lower value
Summary of the method: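 Agents were tested in combination matrices in half-log decrements from a top concentration at or near clinical Cmax (10 microM if undetermined). Targets were multi-cell spheroids of tumour lines plus HUVEC and MSC stromal cells.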

[1] = curve of first compound, second compound 0.00316 µM
[2] = curve of first compound, second compound 0.01 µM
[3] = curve of first compound, second compound 0.0316 µM
[4] = curve of first compound, second compound 0.1 µM
[5] = curve of first compound, second compound 0.316 µM
[6] = curve of first compound, second compound 1 µM
[7] = second compound 0.00316 µM, first compound 0.00316 µM
[8] = second compound 0.00316 µM, first compound 0.01 µM
[9] = second compound 0.00316 µM, first compound 0.0316 µM
[10] = second compound 0.00316 µM, first compound 0.1 µM
[11] = second compound 0.01 µM, first compound 0.00316 µM
[12] = second compound 0.01 µM, first compound 0.01 µM
[13] = second compound 0.01 µM, first compound 0.0316 µM
[14] = second compound 0.01 µM, first compound 0.1 µM
[15] = second compound 0.0316 µM, first compound 0.00316 µM
[16] = second compound 0.0316 µM, first compound 0.01 µM
[17] = second compound 0.0316 µM, first compound 0.0316 µM
[18] = second compound 0.0316 µM, first compound 0.1 µM
[19] = second compound 0.1 µM, first compound 0.00316 µM
[20] = second compound 0.1 µM, first compound 0.01 µM
[21] = second compound 0.1 µM, first compound 0.0316 µM
[22] = second compound 0.1 µM, first compound 0.1 µM
[23] = second compound 0.316 µM, first compound 0.00316 µM
[24] = second compound 0.316 µM, first compound 0.01 µM
[25] = second compound 0.316 µM, first compound 0.0316 µM
[26] = second compound 0.316 µM, first compound 0.1 µM
[27] = second compound 1 µM, first compound 0.00316 µM
[28] = second compound 1 µM, first compound 0.01 µM
[29] = second compound 1 µM, first compound 0.0316 µM
[30] = second compound 1 µM, first compound 0.1 µM
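Further: spheroids exposed to the agents for seven days before the readout.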

- IC50 (curve of compound): 6.68 µM [middle of 4 runs]
SMILES: CC1(O)CCCC1n1c(=O)c(C(F)F)cc2cnc(NC3CCN(S(C)(=O)=O)CC3)nc21 (stereo not drawn)
- viability, T/C (compound 0.0316 µM): 89.5% [middle of 4 runs]
- viability, T/C (compound 0.1 µM): 69.3% [middle of 4 runs]
- viability, T/C (compound 0.316 µM): 65.3% [middle of 4 runs]
- viability, T/C (compound 1 µM): 66.8% [middle of 4 runs]
- viability, T/C (compound 3.16 µM): 73.8% [middle of 4 runs]
- viability, T/C (compound 10 µM): 35.3% [middle of 4 runs]

- pIC50 (curve of first compound, second compound 0.000949 µM): < 6.00
- pIC50 (curve of first compound, second compound 0.003 µM): < 6.00
- pIC50 (curve of first compound, second compound 0.00949 µM): < 6.00
- pIC50 (curve of first compound, second compound 0.03 µM): < 6.00
- pIC50 (curve of first compound, second compound 0.0949 µM): < 6.00
- pIC50 (curve of first compound, second compound 0.3 µM): < 6.00
SMILES: C=CC(=O)N1CCN(c2nc(OCC3CCCN3C)nc3c(F)c(-c4nc(N)cc(C)c4C(F)(F)F)c(Cl)cc23)C(C)C1 (stereo not drawn) + CCn1c(-c2cccnc2C(C)OC)c2c3cc(ccc31)N1CCOC(CC(NC(=O)C(C(C)C)N(C)C(=O)C3(F)CCN(C(=O)C#CC(C)(C)N(C)C)CC3)C(=O)N3CCCC(N3)C(=O)OCC(C)(C)C2)C1
- viability, T/C (second compound 0.000949 µM, first compound 0.00316 µM): 94.1%
- viability, T/C (second compound 0.000949 µM, first compound 0.01 µM): 103%
- viability, T/C (second compound 0.000949 µM, first compound 0.0316 µM): 101%
- viability, T/C (second compound 0.000949 µM, first compound 0.1 µM): 98.3%
- viability, T/C (second compound 0.000949 µM, first compound 0.316 µM): 103%
- viability, T/C (second compound 0.000949 µM, first compound 1 µM): 91.5%
- viability, T/C (second compound 0.003 µM, first compound 0.00316 µM): 113%
- viability, T/C (second compound 0.003 µM, first compound 0.01 µM): 101%
- viability, T/C (second compound 0.003 µM, first compound 0.0316 µM): 102%
- viability, T/C (second compound 0.003 µM, first compound 0.1 µM): 98.9%
- viability, T/C (second compound 0.003 µM, first compound 0.316 µM): 99.8%
- viability, T/C (second compound 0.003 µM, first compound 1 µM): 104%
- viability, T/C (second compound 0.00949 µM, first compound 0.00316 µM): 93.2%
- viability, T/C (second compound 0.00949 µM, first compound 0.01 µM): 104%
- viability, T/C (second compound 0.00949 µM, first compound 0.0316 µM): 102%
- viability, T/C (second compound 0.00949 µM, first compound 0.1 µM): 96.9%
- viability, T/C (second compound 0.00949 µM, first compound 0.316 µM): 109%
- viability, T/C (second compound 0.00949 µM, first compound 1 µM): 106%
- viability, T/C (second compound 0.03 µM, first compound 0.00316 µM): 102%
- viability, T/C (second compound 0.03 µM, first compound 0.01 µM): 99.2%
- viability, T/C (second compound 0.03 µM, first compound 0.0316 µM): 104%
- viability, T/C (second compound 0.03 µM, first compound 0.1 µM): 91.6%
- viability, T/C (second compound 0.03 µM, first compound 0.316 µM): 114%
- viability, T/C (second compound 0.03 µM, first compound 1 µM): 101%
- viability, T/C (second compound 0.0949 µM, first compound 0.00316 µM): 84.2%
- viability, T/C (second compound 0.0949 µM, first compound 0.01 µM): 107%
- viability, T/C (second compound 0.0949 µM, first compound 0.0316 µM): 112%
- viability, T/C (second compound 0.0949 µM, first compound 0.1 µM): 107%
- viability, T/C (second compound 0.0949 µM, first compound 0.316 µM): 108%
- viability, T/C (second compound 0.0949 µM, first compound 1 µM): 102%
- viability, T/C (second compound 0.3 µM, first compound 0.00316 µM): 103%
- viability, T/C (second compound 0.3 µM, first compound 0.01 µM): 98.9%
- viability, T/C (second compound 0.3 µM, first compound 0.0316 µM): 111%
- viability, T/C (second compound 0.3 µM, first compound 0.1 µM): 108%
- viability, T/C (second compound 0.3 µM, first compound 0.316 µM): 104%
- viability, T/C (second compound 0.3 µM, first compound 1 µM): 96.8%

- pIC50 [1]: < 6.00
- pIC50 [2]: < 6.00
- pIC50 [3]: < 6.00
- pIC50 [4]: < 6.00
- pIC50 [5]: < 6.00
- pIC50 [6]: < 6.00
SMILES: CCN1CCN(Cc2ccc(Nc3ncc(F)c(-c4cc(F)c5nc(C)n(C(C)C)c5c4)n3)nc2)CC1 + C=CC(=O)N1CCN(c2nc(OCC3CCCN3C)nc3c(F)c(-c4nc(N)cc(C)c4C(F)(F)F)c(Cl)cc23)C(C)C1
- viability, T/C [7]: 90.4%
- viability, T/C [8]: 79.5%
- viability, T/C [9]: 68.9%
- viability, T/C [10]: 61.7%
- viability, T/C (second compound 0.00316 µM, first compound 0.316 µM): 80%
- viability, T/C (second compound 0.00316 µM, first compound 1 µM): 75.4%
- viability, T/C [11]: 93.4%
- viability, T/C [12]: 84.1%
- viability, T/C [13]: 69.3%
- viability, T/C [14]: 66.9%
- viability, T/C (second compound 0.01 µM, first compound 0.316 µM): 67.7%
- viability, T/C (second compound 0.01 µM, first compound 1 µM): 69.7%
- viability, T/C [15]: 106%
- viability, T/C [16]: 87.1%
- viability, T/C [17]: 75.8%
- viability, T/C [18]: 65.3%
- viability, T/C (second compound 0.0316 µM, first compound 0.316 µM): 68.1%
- viability, T/C (second compound 0.0316 µM, first compound 1 µM): 81.7%
- viability, T/C [19]: 111%
- viability, T/C [20]: 84%
- viability, T/C [21]: 67.6%
- viability, T/C [22]: 73.7%
- viability, T/C (second compound 0.1 µM, first compound 0.316 µM): 63%
- viability, T/C (second compound 0.1 µM, first compound 1 µM): 67.1%
- viability, T/C [23]: 84.8%
- viability, T/C [24]: 98.6%
- viability, T/C [25]: 78.2%
- viability, T/C [26]: 69.4%
- viability, T/C (second compound 0.316 µM, first compound 0.316 µM): 70.7%
- viability, T/C (second compound 0.316 µM, first compound 1 µM): 70.5%
- viability, T/C [27]: 94%
- viability, T/C [28]: 81.3%
- viability, T/C [29]: 63.4%
- viability, T/C [30]: 69.7%
- viability, T/C (second compound 1 µM, first compound 0.316 µM): 77.6%
- viability, T/C (second compound 1 µM, first compound 1 µM): 102%

- pIC50 [1]: 7.85
- pIC50 [2]: 8.03
- pIC50 [3]: 7.79
- pIC50 [4]: 7.91
- pIC50 [5]: 7.93
- pIC50 [6]: 7.80
SMILES: CC(C)n1nc(-c2ccc3oc(N)nc3c2)c2c(N)ncnc21 + C=CC(=O)N1CCN(c2nc(OCC3CCCN3C)nc3c(F)c(-c4nc(N)cc(C)c4C(F)(F)F)c(Cl)cc23)C(C)C1
- viability, T/C (second compound 0.00316 µM, first compound 0.000316 µM): 98.1%
- viability, T/C (second compound 0.00316 µM, first compound 0.001 µM): 78.4%
- viability, T/C [7]: 73.5%
- viability, T/C [8]: 52.5%
- viability, T/C [9]: 41.5%
- viability, T/C [10]: 22.6%
- viability, T/C (second compound 0.01 µM, first compound 0.000316 µM): 83.8%
- viability, T/C (second compound 0.01 µM, first compound 0.001 µM): 97.3%
- viability, T/C [11]: 68.8%
- viability, T/C [12]: 50.5%
- viability, T/C [13]: 35%
- viability, T/C [14]: 29.1%
- viability, T/C (second compound 0.0316 µM, first compound 0.000316 µM): 101%
- viability, T/C (second compound 0.0316 µM, first compound 0.001 µM): 91.3%
- viability, T/C [15]: 71.8%
- viability, T/C [16]: 58.1%
- viability, T/C [17]: 40.6%
- viability, T/C [18]: 25%
- viability, T/C (second compound 0.1 µM, first compound 0.000316 µM): 77.6%
- viability, T/C (second compound 0.1 µM, first compound 0.001 µM): 74.6%
- viability, T/C [19]: 70.7%
- viability, T/C [20]: 55.2%
- viability, T/C [21]: 30.4%
- viability, T/C [22]: 26.3%
- viability, T/C (second compound 0.316 µM, first compound 0.000316 µM): 92.8%
- viability, T/C (second compound 0.316 µM, first compound 0.001 µM): 82%
- viability, T/C [23]: 66.3%
- viability, T/C [24]: 51.1%
- viability, T/C [25]: 39.7%
- viability, T/C [26]: 27.8%
- viability, T/C (second compound 1 µM, first compound 0.000316 µM): 90.9%
- viability, T/C (second compound 1 µM, first compound 0.001 µM): 91.8%
- viability, T/C [27]: 72%
- viability, T/C [28]: 55.8%
- viability, T/C [29]: 42.1%
- viability, T/C [30]: 26.6%

- pIC50 (curve of compound): < 5.00
SMILES: Cc1nc(N2CCC3(CC2)COC(C)C3N)c(CO)nc1Sc1ccnc(N)c1Cl (stereo not drawn)
- viability, T/C (compound 0.0316 µM): 91.2% [middle of 4 runs]
- viability, T/C (compound 0.1 µM): 98.4% [middle of 4 runs]
- viability, T/C (compound 1 µM): 87.6% [middle of 4 runs]
- viability, T/C (compound 3.16 µM): 85.8% [middle of 4 runs]
